Test results published in PubChem BioAssay AID248 (DTP/NCI, 2004).
Inconclusive results and toxic doses are left out. Rule as the data show it: active = T/C of 150% or more; inactive = T/C below 125%.

Test system: L1210 leukemia ip in BDF1 mice, survival T/C
Test: NCI In Vivo Anticancer Drug Screen. Data for tumor model L1210 Leukemia (intraperitoneal) in B6D2F1 (BDF1) mice
Details: endpoint: mean survival time, higher = longer survival
Method in brief: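 Each compound was tested against a transplantable tumor grown in mice. The endpoint was survival, with treated animals benchmarked against vehicle controls as a simple ratio.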

[1] = dose: 100.0 mg/kg/injection, schedule: Q04DX003 (ip), vehicle: saline with Tween-80
[2] = dose: 200.0 mg/kg/injection, schedule: Q04DX003 (ip), vehicle: saline with Tween-80
[3] = dose: 400.0 mg/kg/injection, schedule: Q04DX003 (ip), vehicle: saline with Tween-80
[4] = dose: 100.0 mg/kg/injection, schedule: Q01DX009 (ip), vehicle: Klucel (hydroxypropylcellulose) (HPC)
[5] = dose: 200.0 mg/kg/injection, schedule: Q01DX009 (ip), vehicle: Klucel (hydroxypropylcellulose) (HPC)
[6] = dose: 400.0 mg/kg/injection, schedule: Q01DX009 (ip), vehicle: Klucel (hydroxypropylcellulose) (HPC)
[7] = dose: 50.0 mg/kg/injection, schedule: Q01DX009 (ip), vehicle: Klucel (hydroxypropylcellulose) (HPC)
[8] = dose: 100.0 mg/kg/injection, schedule: Q01DX001 (ip), vehicle: carboxymethylcellulose (CMC)
[9] = dose: 200.0 mg/kg/injection, schedule: Q01DX001 (ip), vehicle: carboxymethylcellulose (CMC)
[10] = dose: 400.0 mg/kg/injection, schedule: Q01DX001 (ip), vehicle: carboxymethylcellulose (CMC)
[11] = dose: 100.0 mg/kg/injection, schedule: Q04DX003 (ip), vehicle: saline
[12] = dose: 200.0 mg/kg/injection, schedule: Q04DX003 (ip), vehicle: saline
[13] = dose: 400.0 mg/kg/injection, schedule: Q04DX003 (ip), vehicle: saline

Measured: T/C

CC(=O)Oc1cc(C)c2c(c1C)C1OC(=O)C(C)C1CC2 (configuration not stated)
inactive: dose: 100.0 mg/kg/injection, schedule: Q01DX001 (ip), vehicle: other 98 % of control | dose: 200.0 mg/kg/injection, schedule: Q01DX001 (ip), vehicle: other 98 % of control | dose: 400.0 mg/kg/injection, schedule: Q01DX001 (ip), vehicle: other 97 % of control

Cn1c(=O)c2c(ncn2C)n(C)c1=O (tested in a mixture with another compound)
inactive: [1] 98 % of control | [2] 101 % of control | [3] 114 % of control

CCOc1ccc(C(/C(Cl)=N/O)C(Cl)(Cl)Cl)cc1 (configuration not stated)
inactive: dose: 12.5 mg/kg/injection, schedule: Q04DX003 (ip), vehicle: acetone 93 % of control | dose: 25.0 mg/kg/injection, schedule: Q04DX003 (ip), vehicle: acetone 97 % of control | dose: 50.0 mg/kg/injection, schedule: Q04DX003 (ip), vehicle: acetone 92 % of control

CCS(=O)c1ncc2cnccn12 (configuration not stated)
inactive: dose: 50.0 mg/kg/injection, schedule: Q01DX009 (ip), vehicle: water 105 % of control | dose: 100.0 mg/kg/injection, schedule: Q01DX009 (ip), vehicle: water 107 % of control | dose: 100.0 mg/kg/injection, schedule: Q04DX003 (ip), vehicle: water 102 % of control | dose: 200.0 mg/kg/injection, schedule: Q04DX003 (ip), vehicle: water 100 % of control

CC(C)C1CCC(N)CC1 (configuration not stated)
inactive: dose: 75.0 mg/kg/injection, schedule: Q01DX001 (ip), vehicle: saline 100 % of control

CC1(C)OC2CS(=O)(=O)CC2O1 (configuration not stated)
inactive: [1] 100 % of control | [2] 105 % of control | [3] 102 % of control

NC(=O)c1ccccc1NC(=O)Nc1c(Cl)cccc1Cl
inactive: [4] 94 % of control | [5] 106 % of control | [6] 120 % of control

CN(C)C=O.CN(C)C=O.[Cl][Sn]([Cl])([Cl])[Cl]
inactive: [7] 103 % of control | [4] 93 % of control | dose: 100.0 mg/kg/injection, schedule: Q04DX003 (ip), vehicle: Klucel (hydroxypropylcellulose) (HPC) 92 % of control | dose: 200.0 mg/kg/injection, schedule: Q04DX003 (ip), vehicle: Klucel (hydroxypropylcellulose) (HPC) 92 % of control

Cc1ccc(NC(N)=O)cc1Cl
inactive: [4] 105 % of control | [5] 107 % of control | [6] 102 % of control

CCOC(=O)N(CC(C)C(=O)OC)C(C)C (configuration not stated)
inactive: dose: 100.0 mg/kg/injection, schedule: Q01DX Z (ip), vehicle: saline 100 % of control | dose: 200.0 mg/kg/injection, schedule: Q01DX Z (ip), vehicle: saline 97 % of control

CNc1nnnn1-c1ccccc1
inactive: dose: 100.0 mg/kg/injection, schedule: Q01DX001 (ip), vehicle: acetone 95 % of control | dose: 200.0 mg/kg/injection, schedule: Q01DX001 (ip), vehicle: acetone 100 % of control | dose: 400.0 mg/kg/injection, schedule: Q01DX001 (ip), vehicle: acetone 95 % of control

CCCCCCc1cc(N=Nc2ccc(S(=O)(=O)Nc3cc(C)nc(C)n3)cc2)c(O)cc1O
inactive: [8] 101 % of control | [9] 95 % of control | [10] 95 % of control

OCC12CCCCC1CC1(CC2)OCCO1 (configuration not stated)
inactive: dose: 50.0 mg/kg/injection, schedule: Q01DX009 (ip), vehicle: saline with Tween-80 102 % of control | dose: 100.0 mg/kg/injection, schedule: Q01DX009 (ip), vehicle: saline with Tween-80 103 % of control | dose: 100.0 mg/kg/injection, schedule: Q01DX009 (ip), vehicle: saline 100 % of control | [1] 86 % of control | [11] 111 % of control | dose: 200.0 mg/kg/injection, schedule: Q01DX009 (ip), vehicle: saline with Tween-80 96 % of control | dose: 200.0 mg/kg/injection, schedule: Q01DX009 (ip), vehicle: saline 102 % of control | [2] 99 % of control | [12] 106 % of control | dose: 400.0 mg/kg/injection, schedule: Q01DX009 (ip), vehicle: saline 107 % of control | [13] 106 % of control

O=C(O)c1ccccc1C(=O)c1ccc2cccc(F)c2c1
inactive: dose: 100.0 mg/kg/injection, schedule: Q01DX001 (ip), vehicle: Klucel (hydroxypropylcellulose) (HPC) 105 % of control | dose: 200.0 mg/kg/injection, schedule: Q01DX001 (ip), vehicle: Klucel (hydroxypropylcellulose) (HPC) 120 % of control | dose: 400.0 mg/kg/injection, schedule: Q01DX001 (ip), vehicle: Klucel (hydroxypropylcellulose) (HPC) 100 % of control

C(#[C][Sb]([C]#Cc1ccccc1)[C]#Cc1ccccc1)c1ccccc1
inactive: [11] 98 % of control | [12] 106 % of control | [13] 102 % of control

CCOC(OCC)c1ccccc1
inactive: dose: 50.0 mg/kg/injection, schedule: Q01DX001 (ip), vehicle: saline 113 % of control | dose: 100.0 mg/kg/injection, schedule: Q01DX001 (ip), vehicle: saline 115 % of control | dose: 200.0 mg/kg/injection, schedule: Q01DX001 (ip), vehicle: saline 109 % of control | dose: 400.0 mg/kg/injection, schedule: Q01DX001 (ip), vehicle: saline 113 % of control

COc1ccc2nc(NC3=NCCO3)sc2c1
inactive: [4] 98 % of control | [5] 94 % of control | [6] 93 % of control

CN(C)C(=O)N1CCCCC1
inactive: dose: 100.0 mg/kg/injection, schedule: Q04DX002 (ip), vehicle: saline with Tween-80 101 % of control | dose: 200.0 mg/kg/injection, schedule: Q04DX002 (ip), vehicle: saline with Tween-80 93 % of control | dose: 400.0 mg/kg/injection, schedule: Q04DX002 (ip), vehicle: saline with Tween-80 111 % of control

Oc1ccc(OCc2ccccc2)cc1
inactive: dose: 25.0 mg/kg/injection, schedule: Q01DX009 (ip), vehicle: Klucel (hydroxypropylcellulose) (HPC) 110 % of control | [7] 88 % of control | [4] 100 % of control | dose: 100.0 mg/kg/injection, schedule: Q04DX003 (ip), vehicle: other 103 % of control | dose: 200.0 mg/kg/injection, schedule: Q04DX003 (ip), vehicle: other 102 % of control | dose: 400.0 mg/kg/injection, schedule: Q04DX003 (ip), vehicle: other 93 % of control

OC(c1ccccc1)(c1ccccc1)c1ccccc1CNc1ccccc1
inactive: dose: 50.0 mg/kg/injection, schedule: Q01DX001 (ip), vehicle: carboxymethylcellulose (CMC) 102 % of control | [8] 88 % of control | [9] 102 % of control | [10] 96 % of control
